Test results reported in patent publication US9067974B2, “Polymyxin derivatives and uses thereof” (priority 2006, dated 2015).
“And” between values parts separate entries of the source, which are not always exact repeats. Identical values can stand only once.

Key:
[1] = system: E. cloacae ATCC23355; assay: Well diffusion growth inhibition on LB agar plates (direct antibacterial activity); assay type: cell-based, Enterobacter cloacae
Protocol: (§1) From an overnight-grown culture of IH3080 on LB agar, a suspension of approx. 10^8 cells/ml was prepared in 0.9% NaCl. Aliquots of this suspension were then pipetted on the agar plates and the plates were gently shaken to spread the suspension evenly on the entire surface of the plate. Thereafter, the unabsorbed part of the suspension was removed by using a Pasteur pipette. After the surface had dried, small wells (diameter, 2 mm) were drilled on the plates (five wells per plate) by using a sterile sharp-edged narrow metal tube, single-use pipette tip, and vacuum suction. Samples (4 μl and 10 μl) of the peptide solution in 0.9% NaCl (at concentrations of 1 μg/ml and 0.1 μg/ml) were then pipetted to the wells and the sample fluids were allowed to absorb. Controls included 0.9% NaCl solution without the compound to be tested. The plates were then incubated for 18 h at 37° C. whereafter the diameters of growth inhibition zones around each well were measured; the diameter of the well itself was not reduced. Finally, the diameters were converted to surface areas of growth inhibition (in square mm).
(§2) The susceptibility of eleven Gram-negative bacterial strains (nine different species) to NAB734 and polymyxin B was compared by using the susceptibility determination method described in Example 2. The strains included those belonging to the species of Serratia marcescens and Proteus mirabilis, both species generally known to be resistant to polymyxin. Furthermore, the susceptibility determination was also performed by using the Gram-positive bacterium, Staphylococcus aureus, also generally known to be polymyxin-resistant. Ten of the strains originated from ATCC (American Type Culture Collection, Manassas, Va., U.S.A.), and one from CCUG (Culture Collection of University of Gothenburg, Sweden). The source of E. coli IH3080 has been described in Example 2. Polymyxin B sulfate was from Sigma-Aldrich (St. Louis, Mo., USA).

[2] = system: S. aureus ATCC 25923; assay: as above; assay type: cell-based, Staphylococcus aureus
Protocol: as §1, with “Samples (4 μl and 10 μl) of the peptide solution in 0.9% NaCl (at concentrations of 1 μg/ml and 0.1 μg/ml) were then pipetted to the wells and the sample fluids were allowed to absorb.” left out
as §2

[3] = system: E. coli ATCC25922; assay: as above; assay type: cell-based, Escherichia coli
Protocol: as §1, with “Samples (4 μl and 10 μl) of the peptide solution in 0.9% NaCl (at concentrations of 1 μg/ml and 0.1 μg/ml) were then pipetted to the wells and the sample fluids were allowed to absorb.” left out
as §2

[4] = system: P. mirabilis ATCC29906; assay: as above; assay type: cell-based, Proteus mirabilis
Protocol: as §1, §2

[5] = system: S. marcescens ATCC8100; assay: as above; assay type: cell-based, Serratia marcescens
Protocol: as §1, §2

[6] = system: K. oxytoca ATCC13182; assay: as above; assay type: cell-based, Klebsiella oxytoca
Protocol: as §1, §2

[7] = system: K. pneumoniae CCUG45421; assay: as above; assay type: cell-based, Klebsiella pneumoniae
Protocol: as §1, with “Samples (4 μl and 10 μl) of the peptide solution in 0.9% NaCl (at concentrations of 1 μg/ml and 0.1 μg/ml) were then pipetted to the wells and the sample fluids were allowed to absorb.” left out
as §2

[8] = system: K. pneumoniae ATCC13883; assay: as above; assay type: cell-based, Klebsiella pneumoniae
Protocol: as §1, §2

[9] = system: C. freundii ATCC8090; assay: as above; assay type: cell-based, Citrobacter freundii
Protocol: as §1, §2

[10] = system: E. coli IH3080 (K1:O18); assay: as above; assay type: cell-based, Escherichia coli
In short: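 Growth inhibition of encapsulated E. coli IH3080 (K1:O18) was measured by well diffusion on LB agar plates. A suspension of about 10^8 cells/ml in 0.9% NaCl, made from an overnight LB agar culture, was spread over the plates and the excess removed. Once dry, five 2 mm wells were drilled per plate and test solutions added, with 0.9% NaCl as control. After 18 h at 37° C, inhibition zone diameters were measured and converted to surface areas in square mm.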

[11] = system: Acinetobacter baumannii ATCC 19606; assay: as above; assay type: cell-based; details: A. baumannii ATCC 19606
Protocol: as §1
(§3) Direct antibacterial activity of twelve NAB compounds against Acinetobacter baumannii ATCC 19606 and Pseudomonas aeruginosa ATCC 27853 was tested by using the susceptibility determination method described in Example 2. Five compounds (NAB7062, NAB734, NAB737, NAB739, and NAB740) had notable activity against A. baumannii. […] The antibacterial activity of NAB739 and NAB740 were as strong as or even stronger than that of polymyxin B.

[12] = system: Pseudomonas aeruginosa ATCC 27853; assay: as above; assay type: cell-based; details: Ps. aeruginosa ATCC 27853
Protocol: as §1, §3

[13] = system: E. coli IH3080; assay: Sensitization to rifampin: well diffusion growth inhibition on LB plates containing rifampin; assay type: cell-based, Escherichia coli; details: 4 μg of compound
[14] = system: Ps. aeruginosa ATCC 27853; assay: as above; assay type: cell-based, Pseudomonas aeruginosa; details: 4 μg of compound
[15] = system: A. baumannii ATCC 19606; assay: as above; assay type: cell-based, Acinetobacter baumannii; details: 4 μg of compound
[16] = system: E. coli IH3080 (K1:O18); assay: Experimental E. coli peritonitis model in mice; assay type: in vivo; details: 5 mg/kg subcutaneous
Protocol: A suspension of E. coli IH3080 (K1:O18) in saline (0.9% NaCl) was prepared from an overnight culture on a blood agar plate (Statens Serum Institut, Copenhagen, Denmark). All mice (female NMR1 from Harlan Scandinavia, Allerød, Denmark; weight, 25-30 g) were inoculated intraperitoneally with 0.5 ml of the suspension containing 0.96×10^6 CFU per ml in the lateral lower quadrant of the abdomen. At 1 h, the CFU count was determined from three mice and the remaining mice (four mice per group) were treated with a subcutaneous injection of 0.2 ml of erythromycin solution in saline (corresponding to 5 mg/kg body weight) or NAB7061 solution in saline (corresponding to 5 mg/kg body weight), or both erythromycin and NAB7061 (corresponding to 5 mg/kg body weight of both drugs; given at two separate sites). Control group received two 0.2 ml injections of saline. At 4.5 h postinfection, all mice were anaesthetized with CO2 and sacrificed. Sterile saline (2 ml) was injected intraperitoneally and the abdomen was gently massaged before it was opened and the fluid sampled. Appropriate dilutions of the fluid were plated on blood agar plates, the plates were incubated overnight, and the colonies were counted.

[17] = target: brush-border membrane (BBM) from the renal cortex; assay: Inhibition of [3H] gentamycin binding to brush-border membrane vesicles; design: species or system rats; details: 20 μM [3H] gentamycin; 60 min at 4° C.; rat renal cortex BBM vesicles
From the text: The binding of the compounds according to this invention to isolated brush-border membrane (BBM) from the renal cortex can be measured indirectly by measuring their ability to inhibit the binding of radiolabelled gentamycin to BBM. Accordingly, the compounds according to this invention that have less affinity to BBM than for example polymyxin B inhibit the binding of radiolabelled gentamycin to a lesser degree than does polymyxin B.
BBM was isolated from the renal cortex of male albino rats by using the Mg^2+/EGTA precipitation technique as described by Nagai et al. (2006). The binding of gentamycin was measured, according to the method described by Nagai et al. (2006) by incubating BBM vesicles (20 μl) in 10 mM HEPES (pH 7.5) with 100 mM mannitol in the presence of 20 μM [^3H] gentamycin (Amersham Biosciences Inc., Buckinghamshire, U.K.) with or without the compound to be tested or a positive control. After an incubation of 60 min at 4° C., 1 ml of ice-cold buffer described above was added, and the mixture was filtered through a Millipore filter (0.45 μm; HAWP). The filter was washed with the buffer and the radioactivity remaining in the filter was measured by using a liquid scintillation counter. The IC50 values were determined as in Nagai et al. (2006) using the Hill equation.

## Polymyxin B sulfate [reference compound]
[1]; 4 μg per well
  Antibacterial activity (growth inhibition area around a well): 95 square millimeters
[1]; 10 μg per well
  Antibacterial activity (growth inhibition area around a well): 143 square millimeters
[2]; 4 μg per well
  Antibacterial activity (growth inhibition area around a well): 0 square millimeters
[2]; 10 μg per well
  Antibacterial activity (growth inhibition area around a well): 0 square millimeters
[3]; 4 μg per well
  Antibacterial activity (growth inhibition area around a well): 95 square millimeters
[3]; 10 μg per well
  Antibacterial activity (growth inhibition area around a well): 133 square millimeters
[4]; 4 μg per well
  Antibacterial activity (growth inhibition area around a well): 0 square millimeters
[4]; 10 μg per well
  Antibacterial activity (growth inhibition area around a well): 0 square millimeters
[5]; 4 μg per well
  Antibacterial activity (growth inhibition area around a well): 0 square millimeters
[5]; 10 μg per well
  Antibacterial activity (growth inhibition area around a well): 0 square millimeters
[6]; 4 μg per well
  Antibacterial activity (growth inhibition area around a well): 79 square millimeters
[6]; 10 μg per well
  Antibacterial activity (growth inhibition area around a well): 104 square millimeters
[7]; 4 μg per well
  Antibacterial activity (growth inhibition area around a well): 95 square millimeters
[7]; 10 μg per well
  Antibacterial activity (growth inhibition area around a well): 133 square millimeters
[8]; 4 μg per well
  Antibacterial activity (growth inhibition area around a well): 79 square millimeters
[8]; 10 μg per well
  Antibacterial activity (growth inhibition area around a well): 113 square millimeters
[9]; 4 μg per well
  Antibacterial activity (growth inhibition area around a well): 95 square millimeters
[9]; 10 μg per well
  Antibacterial activity (growth inhibition area around a well): 154 square millimeters
[10]; 4 μg of compound per well
  Antibacterial activity (growth inhibition area around a well): 95 square millimeters
[10]; 10 μg of compound per well
  Antibacterial activity (growth inhibition area around a well): 133 square millimeters
[11]; 4 μg per well
  Antibacterial activity (growth inhibition area around a well): 113 square millimeters
[11]; 10 μg per well
  Antibacterial activity (growth inhibition area around a well): 154 square millimeters
[12]; 4 μg per well
  Antibacterial activity (growth inhibition area around a well): 95 square millimeters
[12]; 10 μg per well
  Antibacterial activity (growth inhibition area around a well): 133 square millimeters

## OA-Thr-DSer-cy[Dab-Dab-DPhe-Thr-Dab-Dab-Thr-] [NAB 734]
[1]; 4 μg per well
  Antibacterial activity (growth inhibition area around a well): 133 square millimeters
[1]; 10 μg per well
  Antibacterial activity (growth inhibition area around a well): 177 square millimeters
[2]; 4 μg per well
  Antibacterial activity (growth inhibition area around a well): 0 square millimeters
[2]; 10 μg per well
  Antibacterial activity (growth inhibition area around a well): 0 square millimeters
[3]; 4 μg per well
  Antibacterial activity (growth inhibition area around a well): 133 square millimeters
[3]; 10 μg per well
  Antibacterial activity (growth inhibition area around a well): 177 square millimeters
[4]; 4 μg per well
  Antibacterial activity (growth inhibition area around a well): 0 square millimeters
[4]; 10 μg per well
  Antibacterial activity (growth inhibition area around a well): 0 square millimeters
[5]; 4 μg per well
  Antibacterial activity (growth inhibition area around a well): 0 square millimeters
[5]; 10 μg per well
  Antibacterial activity (growth inhibition area around a well): 0 square millimeters
[6]; 4 μg per well
  Antibacterial activity (growth inhibition area around a well): 95 square millimeters
[6]; 10 μg per well
  Antibacterial activity (growth inhibition area around a well): 143 square millimeters
[13]; rifampin 0 μg/ml
  Antibacterial activity in the presence of rifampin (growth inhibition area around a well): 113 square millimeters
[13]; rifampin 0.1 μg/ml
  Antibacterial activity in the presence of rifampin (growth inhibition area around a well): 154 square millimeters
[13]; rifampin 1.0 μg/ml
  Antibacterial activity in the presence of rifampin (growth inhibition area around a well): 201 square millimeters
[7]; 4 μg per well
  Antibacterial activity (growth inhibition area around a well): 64 square millimeters
[7]; 10 μg per well
  Antibacterial activity (growth inhibition area around a well): 104 square millimeters
[14]; rifampin 0 μg/ml
  Antibacterial activity in the presence of rifampin (growth inhibition area around a well): 13 square millimeters
[14]; rifampin 0.1 μg/ml
  Antibacterial activity in the presence of rifampin (growth inhibition area around a well): 20 square millimeters
[14]; rifampin 0.3 μg/ml
  Antibacterial activity in the presence of rifampin (growth inhibition area around a well): 20 square millimeters
[8]; 4 μg per well
  Antibacterial activity (growth inhibition area around a well): 64 square millimeters
[8]; 10 μg per well
  Antibacterial activity (growth inhibition area around a well): 113 square millimeters
[9]; 4 μg per well
  Antibacterial activity (growth inhibition area around a well): 133 square millimeters
[9]; 10 μg per well
  Antibacterial activity (growth inhibition area around a well): 177 square millimeters
[10]; 4 μg of compound per well
  Antibacterial activity (growth inhibition area around a well): 113 square millimeters
[10]; 10 μg of compound per well
  Antibacterial activity (growth inhibition area around a well): 177 square millimeters and 154 square millimeters
[15]; rifampin 0 μg/ml
  Antibacterial activity in the presence of rifampin (growth inhibition area around a well): 38 square millimeters
[15]; rifampin 0.1 μg/ml
  Antibacterial activity in the presence of rifampin (growth inhibition area around a well): 201 square millimeters
[15]; rifampin 0.3 μg/ml
  Antibacterial activity in the presence of rifampin (growth inhibition area around a well): 283 square millimeters
[11]; 4 μg per well
  Antibacterial activity (growth inhibition area around a well): 38 square millimeters and 57 square millimeters
[11]; 10 μg per well
  Antibacterial activity (growth inhibition area around a well): 95 square millimeters and 79 square millimeters
[12]; 4 μg per well
  Antibacterial activity (growth inhibition area around a well): 13 square millimeters
[12]; 10 μg per well
  Antibacterial activity (growth inhibition area around a well): 50 square millimeters

## CC[C@H]1OC(=O)[C@H](C)[C@@H](O[C@H]2C[C@@](C)(OC)[C@@H](O)[C@H](C)O2)[C@H](C)[C@@H](O[C@@H]2O[C@H](C)C[C@H](N(C)C)[C@H]2O)[C@](C)(O)C[C@@H](C)C(=O)[C@H](C)[C@@H](O)[C@]1(C)O [erythromycin]
[16]; 4.5 h postinfection ([…] after the treatment)
  CFU counts in peritoneal fluid: 8.9 (±6.4)×10^6 per ml
[16]; from 1 h to 4.5 h postinfection
  Factor of increase of the bacterial count: 12

## gentamycin [unlabelled gentamycin]
[17]
  IC50: 90.2 µM
